# Measurements: patent publication US8815854B2, “Substituted imidazopyridinyl compounds” (ArQule, Inc., priority 2011, dated 2014)
# Molecular target: Full-length inactive AKT1 (Homo sapiens (Human), UniProt P31749)
# Experiment: Inactive Akt Alpha Screen Assay (AKT1, crosstide substrate)
# Conditions: full-length inactive AKT1 activated by PDK1 and MAPKAPK2, lipid vesicles, 50 μM ATP; biotinylated crosstide substrate; read-out: Akt1 biochemical assay IC50 AlphaScreen crosstide
# Method: AKT1 activity was assayed using the GSK3-derived biotinylated peptide substrate, crosstide (biotin-GRPRTSSFAEG), and AlphaScreen™ (Amplified Luminescent Proximity Homogeneous Assay) technology. AKT1 activation was achieved by the addition of the activating kinases PDK1 and MAPKAPK2, lipid vesicles, and ATP. The extent of peptide phosphorylation was determined using a phospho-AKT substrate antibody and acceptor beads conjugated to Protein A and donor beads conjugated to streptavidin that bind to the biotin on the peptide. Excitation of the donor beads converted ambient oxygen to excited singlet oxygen which, when in close proximity to acceptor beads, reacted with acceptor beads resulting in signal amplification.
# Test inhibitors and controls ((S)-1-(5-(3-methyl-1H-indazol-5-yl)pyridin-3-yl)oxy)-3-phenylpropan-2-amine, 1-(1-(4-(7-phenyl-1H-imidazo[4,5-g]quinoxalin-6-yl)benzyl)piperidin-4-yl)-1H-benzo[d]imidazol-2(3H)-one, and 8-(4-(1-aminocyclobutyl)phenyl)-9-phenyl-[1,2,4]triazolo[3,4-f][1,6]naphthyridin-3(2H)-one) were prepared in 10% DMSO at 10-fold the desired final concentration, and added to each well of a reaction plate (Corning 96-well half-area solid white nonbinding surface plate) in a volume of 2.5 μL. […] After a 20 minute pre-incubation at room temperature, the kinase reaction was initiated by the addition of 5 μL of an activation mixture diluted in assay buffer containing biotinylated crosstide, PDK1, MAPKAPK2, DOPS/DOPC, PtdIns(3,4,5)P3, and ATP for final concentrations of 60 nM biotinylated crosstide, 0.1 nM PDK1, 0.7 nM MK2, 5.5 μM DOPS, 5.5 μM DOPC, 0.5 μM PtdIns(3,4,5)P3, and 50 μM ATP. The plates were incubated for 30 minutes at room temperature, and then stopped in the dark by the addition of 10 μL stop/detection mixture prepared in assay buffer containing EDTA, AlphaScreen™ Streptavidin Donor and Protein A Acceptor beads, and phospho-AKT substrate antibody for final concentrations of 10 mM EDTA, 500 ng/well of both AlphaScreen™ Streptavidin Donor beads and Protein A Acceptor beads, and phospho-AKT substrate antibody at a final dilution of 1:350. Assay plates were incubated for 90 minutes at room temperature in the dark, and the plates were read on a Perkin Elmer Envision Multilabel plate reader (excitation wavelength: […], emission wavelength: 570 nm).
# Envision Instrument Settings: • Instrument: Perkin Elmer Envision • Plate: 96 well • Program Name: • Excitation: Ex Top • Minor: General Dual—Slot 2 • Excitation Filter: CFP430 Ex. Slot 2 • Emission Filter Emission 579—Em slot 2 • 2nd Emission Filter: None • Measurement Height (mm): 3.8 • Excitation light (%): 1 • Detector gain: 1 • 2nd detector gain: 0 • # Flashes: 10 • # Flashed/AD: 1 • Reference Signal: 383722 • AD gain: 4 • Reference Excitation (%): 100
# Chain of Full-length inactive AKT1 (P31749 whole entry): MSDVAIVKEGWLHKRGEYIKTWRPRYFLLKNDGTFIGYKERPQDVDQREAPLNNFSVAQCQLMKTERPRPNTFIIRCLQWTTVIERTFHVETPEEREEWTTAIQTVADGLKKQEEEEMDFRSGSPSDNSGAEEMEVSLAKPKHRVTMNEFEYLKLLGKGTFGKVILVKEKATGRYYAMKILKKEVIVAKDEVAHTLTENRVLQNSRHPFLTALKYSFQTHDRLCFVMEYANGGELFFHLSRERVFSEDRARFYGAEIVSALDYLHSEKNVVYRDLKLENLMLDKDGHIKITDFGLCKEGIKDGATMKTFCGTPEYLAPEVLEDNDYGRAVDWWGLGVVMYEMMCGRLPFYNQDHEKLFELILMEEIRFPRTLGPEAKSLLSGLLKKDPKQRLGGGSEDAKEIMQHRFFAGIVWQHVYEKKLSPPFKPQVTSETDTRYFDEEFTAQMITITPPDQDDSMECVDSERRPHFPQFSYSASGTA
row,SMILES,IC50 [nM]
1,"CN(C)C(=O)c1cccc(-c2ccc3nc(-c4ccccc4)n(-c4ccc(C5(N)CCC5)cc4)c3n2)c1 [Cmpd 36, 3-{3-[4-(1-aminocyclobutyl)phenyl]-2-phenyl-3H-imidazo[4,5-b]pyridin-5-yl}-N,N-dimethylbenzamide]",5.71
2,"NC1(c2ccc(-n3c(-c4ccc(O)cc4)nc4ccc(-c5cccc(N6CCOCC6)c5)nc43)cc2)CCC1 [Cmpd 26, 4-{3-[4-(1-aminocyclobutyl)phenyl]-5-(3-morpholin-4-ylphenyl)-3H-imidazo[4,5-b]pyridin-2-yl}phenol]",4.42
3,"NC1(c2ccc(-n3c(-c4cc[nH]c4)nc4ccc(-c5cccc(N6CCOCC6)c5)nc43)cc2)CCC1 [Cmpd 19, 1-{4-[5-(3-morpholin-4-ylphenyl)-2-(1H-pyrrol-3-yl)-3H-imidazo[4,5-b]pyridin-3-yl]phenyl} cyclobutanamine]",5.67
4,"NC1(c2ccc(-n3c(-c4ccccc4)nc4ccc(Nc5ccccc5)nc43)cc2)CCC1 [Cmpd 47, 3-[4-(1-aminocyclobutyl)phenyl]-N,2-diphenyl-3H-imidazo[4,5-b]pyridin-5-amine]",4.13
5,"NC1(c2ccc(-n3c(-c4ccsc4)nc4ccc(-c5cccc(N6CCOCC6)c5)nc43)cc2)CCC1 [Cmpd 13, 1-{4-[5-(3-morpholin-4-ylphenyl)-2-(3-thienyl)-3H-imidazo[4,5-b]pyridin-3-yl]phenyl} cyclobutanamine]",5.78
6,"NC1(c2ccc(-n3c(-c4ccccc4)nc4ccc(-c5ccccc5)nc43)cc2)CCC1 [Cmpd 5, 1-[4-(2,5-diphenyl-3H-imidazo[4,5-b]pyridin-3-yl)phenyl] cyclobutanamine]",12.6
7,"NC1(c2ccc(-n3c(-c4nccs4)nc4ccc(-c5cccc(N6CCOCC6)c5)nc43)cc2)CCC1 [Cmpd 17, 1-{4-[5-(3-morpholin-4-ylphenyl)-2-(1,3-thiazol-2-yl)-3H-imidazo[4,5-b]pyridin-3-yl]phenyl} cyclobutanamine]",4.74
8,"COC(=O)c1ccccc1-c1nc2ccc(-c3cccc(N4CCOCC4)c3)nc2n1-c1ccc(C2(N)CCC2)cc1 [Cmpd 20, methyl 2-{3-[4-(1-aminocyclobutyl)phenyl]-5-(3-morpholin-4-ylphenyl)-3H-imidazo[4,5-b]pyridin-2-yl} benzoate]",5260
9,"NC1(c2ccc(-n3c(-c4cccnc4F)nc4ccc(-c5ccccc5)nc43)cc2)CCC1 [Cmpd 7, 1-{4-[2-(2-fluoropyridin-3-yl)-5-phenyl-3H-imidazo[4,5-b]pyridin-3-yl]phenyl}cyclobutanamine]",11.5
10,"NC1(c2ccc(-n3c(C4CC4)nc4ccc(-c5cccc(N6CCOCC6)c5)nc43)cc2)CCC1 [Cmpd 44, 1-{4-[2-cyclopropyl-5-(3-morpholin-4-ylphenyl)-3H-imidazo[4,5-b]pyridin-3-yl]phenyl}cyclobutanamine]",871
11,"NC1(c2ccc(-n3c(-c4ccccc4F)nc4ccc(-c5cccc(N6CCOCC6)c5)nc43)cc2)CCC1 [Cmpd 11, 1-{4-[2-(2-fluorophenyl)-5-(3-morpholin-4-ylphenyl)-3H-imidazo[4,5-b]pyridin-3-yl]phenyl}cyclobutanamine]",1.99
12,"NC1(c2ccc(-n3c(-c4ccc(F)cc4)nc4ccc(-c5cccc(N6CCOCC6)c5)nc43)cc2)CCC1 [Cmpd 31, 1-{4-[2-(4-fluorophenyl)-5-(3-morpholin-4-ylphenyl)-3H-imidazo[4,5-b]pyridin-3-yl]phenyl}cyclobutanamine]",35.5
13,"NC1(c2ccc(-n3c(C4CCCCC4)nc4ccc(-c5cccc(N6CCOCC6)c5)nc43)cc2)CCC1 [Cmpd 24, 1-{4-[2-cyclohexyl-5-(3-morpholin-4-ylphenyl)-3H-imidazo[4,5-b]pyridin-3-yl]phenyl} cyclobutanamine]",1160
14,"NC1(c2ccc(-n3c(-c4ccccc4)nc4ccc(-c5cccc(N6CCOCC6)c5)nc43)cc2)CCC1 [Cmpd 9, 1-{4-[5-(3-morpholin-4-ylphenyl)-2-phenyl-3H-imidazo[4,5-b]pyridin-3-yl]phenyl}cyclobutanamine]",3.47
15,"NC1(c2ccc(-n3c(-c4cccc(F)c4)nc4ccc(-c5cccc(N6CCOCC6)c5)nc43)cc2)CCC1 [Cmpd 30, 1-{4-[2-(3-fluorophenyl)-5-(3-morpholin-4-ylphenyl)-3H-imidazo[4,5-b]pyridin-3-yl]phenyl}cyclobutanamine]",4.78
16,"NC1(c2ccc(-n3c(-c4ccccn4)nc4ccc(-c5cccc(N6CCOCC6)c5)nc43)cc2)CCC1 [Cmpd 14, 1-{4-[5-(3-morpholin-4-ylphenyl)-2-pyridin-2-yl-3H-imidazo[4,5-b]pyridin-3-yl]phenyl} cyclobutanamine]",1.69
17,"NC1(c2ccc(-n3c(-c4ccc(Cl)cc4)nc4ccc(-c5cccc(N6CCOCC6)c5)nc43)cc2)CCC1 [Cmpd 34, 1-{4-[2-(4-chlorophenyl)-5-(3-morpholin-4-ylphenyl)-3H-imidazo[4,5-b]pyridin-3-yl]phenyl}cyclobutanamine]",5.9
18,"NC1(c2ccc(-n3c(-c4ccncc4)nc4ccc(-c5cccc(N6CCOCC6)c5)nc43)cc2)CCC1 [Cmpd 16, 1-{4-[5-(3-morpholin-4-ylphenyl)-2-pyridin-4-yl-3H-imidazo[4,5-b]pyridin-3-yl]phenyl} cyclobutanamine]",7.75
19,"NC1(c2ccc(-n3c(-c4cccs4)nc4ccc(-c5cccc(N6CCOCC6)c5)nc43)cc2)CCC1 [Cmpd 12, 1-{4-[5-(3-morpholin-4-ylphenyl)-2-(2-thienyl)-3H-imidazo[4,5-b]pyridin-3-yl]phenyl} cyclobutanamine]",7.17
20,"NC1(c2ccc(-n3c(-c4cc[nH]n4)nc4ccc(-c5cccc(N6CCOCC6)c5)nc43)cc2)CCC1 [Cmpd 18, 1-{4-[5-(3-morpholin-4-ylphenyl)-2-(1H-pyrazol-3-yl)-3H-imidazo[4,5-b]pyridin-3-yl]phenyl} cyclobutanamine]",7.27
21,"NC1(c2ccc(-n3c(-c4cccnc4)nc4ccc(-c5cccc(N6CCOCC6)c5)nc43)cc2)CCC1 [Cmpd 15, 1-{4-[5-(3-morpholin-4-ylphenyl)-2-pyridin-3-yl-3H-imidazo[4,5-b]pyridin-3-yl]phenyl} cyclobutanamine]",4.3
22,CNC(=O)c1cccc(-c2ccc3nc(-c4ccccc4)n(-c4ccc(C5(N)CCC5)cc4)c3n2)c1 [Cmpd 37],4.96
23,"NC1(c2ccc(-n3c(-c4cnccn4)nc4ccc(-c5cccc(N6CCOCC6)c5)nc43)cc2)CCC1 [Cmpd 42, 1-{4-[5-(3-morpholin-4-ylphenyl)-2-pyrazin-2-yl-3H-imidazo[4,5-b]pyridin-3-yl]phenyl} cyclobutanamine]",4.27
24,"NC(=O)c1cccc(-c2ccc3nc(-c4ccccc4)n(-c4ccc(C5(N)CCC5)cc4)c3n2)c1 [Cmpd 35, 3-{3-[4-(1-aminocyclobutyl)phenyl]-2-phenyl-3H-imidazo[4,5-b]pyridin-5-yl}benzamide]",6.27
